In publication doi:10.1101/2023.12.04.569845, “Identification of 4-(6-((2-methoxyphenyl)amino)pyrazin-2-yl)benzoic acids as CSNK2A inhibitors with antiviral activity and improved selectivity over PIM3” (bioRxiv, 2023):
Like-named read-outs stand apart in the source and are kept apart here. Each block holds one molecule with its values, some of them ahead of it.

Experiments:
Test in all cases: biochemical
Design in all cases: Thermal shift (DSF, SYPRO Orange) Tm shift of recombinant kinase domains at 10 uM compound
[1] = biological target: T1, CASK (Homo sapiens, UniProt O14936)
T1 sequence (O14936 1-926): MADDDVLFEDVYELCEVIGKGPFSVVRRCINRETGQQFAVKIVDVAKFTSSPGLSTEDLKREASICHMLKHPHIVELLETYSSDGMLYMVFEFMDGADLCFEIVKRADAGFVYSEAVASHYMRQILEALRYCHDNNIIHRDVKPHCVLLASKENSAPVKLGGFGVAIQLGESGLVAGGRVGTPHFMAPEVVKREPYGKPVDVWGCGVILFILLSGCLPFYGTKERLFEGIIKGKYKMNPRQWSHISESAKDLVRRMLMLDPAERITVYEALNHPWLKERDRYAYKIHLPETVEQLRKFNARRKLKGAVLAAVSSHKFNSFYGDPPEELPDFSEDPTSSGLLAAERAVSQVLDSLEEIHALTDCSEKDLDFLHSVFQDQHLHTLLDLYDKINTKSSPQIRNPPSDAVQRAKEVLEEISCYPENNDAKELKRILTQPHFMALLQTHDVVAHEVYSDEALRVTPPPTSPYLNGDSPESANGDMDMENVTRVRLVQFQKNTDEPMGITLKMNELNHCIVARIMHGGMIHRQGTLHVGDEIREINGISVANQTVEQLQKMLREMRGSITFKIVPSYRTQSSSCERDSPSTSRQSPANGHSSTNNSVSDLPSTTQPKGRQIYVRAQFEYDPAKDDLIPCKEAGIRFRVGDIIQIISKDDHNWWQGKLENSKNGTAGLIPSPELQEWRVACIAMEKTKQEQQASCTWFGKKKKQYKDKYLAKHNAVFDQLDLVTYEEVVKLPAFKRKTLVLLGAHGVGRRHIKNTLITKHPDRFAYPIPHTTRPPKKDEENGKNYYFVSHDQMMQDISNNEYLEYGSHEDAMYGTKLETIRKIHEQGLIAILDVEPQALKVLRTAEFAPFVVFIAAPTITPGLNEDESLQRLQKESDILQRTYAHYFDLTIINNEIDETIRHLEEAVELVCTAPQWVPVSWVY

[2] = biological target: CAMK1D (Homo sapiens, UniProt Q8IU85)
Sequence of CAMK1D (Q8IU85 whole entry): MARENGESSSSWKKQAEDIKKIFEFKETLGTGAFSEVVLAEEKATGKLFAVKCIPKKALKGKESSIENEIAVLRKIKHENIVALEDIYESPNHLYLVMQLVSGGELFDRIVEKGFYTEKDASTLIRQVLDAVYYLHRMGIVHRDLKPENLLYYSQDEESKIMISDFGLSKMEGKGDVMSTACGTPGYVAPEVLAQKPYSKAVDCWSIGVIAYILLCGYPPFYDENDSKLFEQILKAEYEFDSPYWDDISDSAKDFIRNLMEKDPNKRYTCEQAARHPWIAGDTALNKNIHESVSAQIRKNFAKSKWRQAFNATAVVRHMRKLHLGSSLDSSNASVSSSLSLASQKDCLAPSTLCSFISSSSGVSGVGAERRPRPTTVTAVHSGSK

[3] = biological target: MELK (Homo sapiens, UniProt Q14680)
Sequence of MELK (Q14680 whole entry): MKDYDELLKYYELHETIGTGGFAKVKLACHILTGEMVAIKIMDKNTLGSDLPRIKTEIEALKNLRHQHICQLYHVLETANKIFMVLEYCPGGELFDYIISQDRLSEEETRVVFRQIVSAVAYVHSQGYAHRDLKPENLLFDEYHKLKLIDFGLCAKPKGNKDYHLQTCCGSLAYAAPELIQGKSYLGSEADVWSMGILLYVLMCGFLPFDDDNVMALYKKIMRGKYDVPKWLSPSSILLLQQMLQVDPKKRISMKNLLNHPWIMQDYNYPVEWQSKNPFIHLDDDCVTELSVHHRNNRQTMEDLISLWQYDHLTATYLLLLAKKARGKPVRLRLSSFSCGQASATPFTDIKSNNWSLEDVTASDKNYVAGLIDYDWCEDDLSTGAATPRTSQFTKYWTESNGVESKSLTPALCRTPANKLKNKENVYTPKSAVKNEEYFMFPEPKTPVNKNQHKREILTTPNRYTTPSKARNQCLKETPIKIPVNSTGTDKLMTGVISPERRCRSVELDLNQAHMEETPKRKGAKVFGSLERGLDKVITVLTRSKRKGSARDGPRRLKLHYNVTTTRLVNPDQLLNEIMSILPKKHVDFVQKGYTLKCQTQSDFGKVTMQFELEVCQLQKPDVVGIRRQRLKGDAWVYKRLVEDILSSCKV

[4] = biological target: T2, GAK (Homo sapiens, UniProt O14976)
T2 sequence (O14976 1-1311): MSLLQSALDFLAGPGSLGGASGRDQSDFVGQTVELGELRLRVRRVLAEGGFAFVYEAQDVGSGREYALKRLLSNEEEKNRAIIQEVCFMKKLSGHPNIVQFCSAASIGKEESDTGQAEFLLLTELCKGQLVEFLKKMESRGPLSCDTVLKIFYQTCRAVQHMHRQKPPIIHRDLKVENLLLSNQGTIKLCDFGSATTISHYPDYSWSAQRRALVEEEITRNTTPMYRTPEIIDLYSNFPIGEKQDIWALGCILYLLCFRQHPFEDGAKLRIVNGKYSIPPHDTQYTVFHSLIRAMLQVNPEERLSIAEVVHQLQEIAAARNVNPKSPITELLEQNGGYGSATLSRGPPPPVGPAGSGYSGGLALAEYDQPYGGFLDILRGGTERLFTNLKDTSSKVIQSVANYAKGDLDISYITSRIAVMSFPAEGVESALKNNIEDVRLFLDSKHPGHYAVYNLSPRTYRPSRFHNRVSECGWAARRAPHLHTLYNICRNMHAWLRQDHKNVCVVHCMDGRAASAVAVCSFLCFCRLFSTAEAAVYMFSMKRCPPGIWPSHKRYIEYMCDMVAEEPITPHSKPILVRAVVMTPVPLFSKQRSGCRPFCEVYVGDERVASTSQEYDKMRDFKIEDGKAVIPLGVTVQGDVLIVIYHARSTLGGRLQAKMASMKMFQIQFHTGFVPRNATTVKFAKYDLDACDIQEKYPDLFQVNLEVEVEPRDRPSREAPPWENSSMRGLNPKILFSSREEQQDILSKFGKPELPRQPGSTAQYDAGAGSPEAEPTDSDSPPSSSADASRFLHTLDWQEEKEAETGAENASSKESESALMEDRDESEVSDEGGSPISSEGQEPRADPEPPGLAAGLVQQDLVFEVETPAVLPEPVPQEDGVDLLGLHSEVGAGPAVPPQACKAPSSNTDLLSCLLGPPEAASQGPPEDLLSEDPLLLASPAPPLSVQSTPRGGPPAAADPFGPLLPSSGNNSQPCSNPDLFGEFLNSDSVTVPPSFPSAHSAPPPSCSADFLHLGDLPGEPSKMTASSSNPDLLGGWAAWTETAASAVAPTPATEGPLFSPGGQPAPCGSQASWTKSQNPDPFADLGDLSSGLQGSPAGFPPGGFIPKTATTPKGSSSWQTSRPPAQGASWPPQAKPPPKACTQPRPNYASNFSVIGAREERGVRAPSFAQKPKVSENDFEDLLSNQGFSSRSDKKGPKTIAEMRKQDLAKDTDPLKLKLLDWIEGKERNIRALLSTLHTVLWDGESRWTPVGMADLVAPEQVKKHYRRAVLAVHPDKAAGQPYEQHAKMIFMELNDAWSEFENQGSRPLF

[5] = biological target: T3, JNK1 (Homo sapiens, UniProt P45983)
T3 construct: gene MAPK8
T3 sequence (P45983 whole entry): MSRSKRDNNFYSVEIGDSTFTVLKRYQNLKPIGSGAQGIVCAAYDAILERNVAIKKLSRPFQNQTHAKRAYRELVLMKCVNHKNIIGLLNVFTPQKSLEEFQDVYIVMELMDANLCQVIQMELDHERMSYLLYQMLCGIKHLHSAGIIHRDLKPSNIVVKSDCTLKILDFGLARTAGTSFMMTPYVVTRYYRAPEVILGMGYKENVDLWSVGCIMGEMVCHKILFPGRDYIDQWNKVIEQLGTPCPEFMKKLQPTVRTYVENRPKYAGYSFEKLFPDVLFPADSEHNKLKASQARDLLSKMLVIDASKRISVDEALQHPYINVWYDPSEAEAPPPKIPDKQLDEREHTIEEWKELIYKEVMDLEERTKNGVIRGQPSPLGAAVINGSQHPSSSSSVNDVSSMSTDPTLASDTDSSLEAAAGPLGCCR

[6] = biological target: EphA2 (Homo sapiens, UniProt P29317)
Sequence of EphA2 (P29317 whole entry): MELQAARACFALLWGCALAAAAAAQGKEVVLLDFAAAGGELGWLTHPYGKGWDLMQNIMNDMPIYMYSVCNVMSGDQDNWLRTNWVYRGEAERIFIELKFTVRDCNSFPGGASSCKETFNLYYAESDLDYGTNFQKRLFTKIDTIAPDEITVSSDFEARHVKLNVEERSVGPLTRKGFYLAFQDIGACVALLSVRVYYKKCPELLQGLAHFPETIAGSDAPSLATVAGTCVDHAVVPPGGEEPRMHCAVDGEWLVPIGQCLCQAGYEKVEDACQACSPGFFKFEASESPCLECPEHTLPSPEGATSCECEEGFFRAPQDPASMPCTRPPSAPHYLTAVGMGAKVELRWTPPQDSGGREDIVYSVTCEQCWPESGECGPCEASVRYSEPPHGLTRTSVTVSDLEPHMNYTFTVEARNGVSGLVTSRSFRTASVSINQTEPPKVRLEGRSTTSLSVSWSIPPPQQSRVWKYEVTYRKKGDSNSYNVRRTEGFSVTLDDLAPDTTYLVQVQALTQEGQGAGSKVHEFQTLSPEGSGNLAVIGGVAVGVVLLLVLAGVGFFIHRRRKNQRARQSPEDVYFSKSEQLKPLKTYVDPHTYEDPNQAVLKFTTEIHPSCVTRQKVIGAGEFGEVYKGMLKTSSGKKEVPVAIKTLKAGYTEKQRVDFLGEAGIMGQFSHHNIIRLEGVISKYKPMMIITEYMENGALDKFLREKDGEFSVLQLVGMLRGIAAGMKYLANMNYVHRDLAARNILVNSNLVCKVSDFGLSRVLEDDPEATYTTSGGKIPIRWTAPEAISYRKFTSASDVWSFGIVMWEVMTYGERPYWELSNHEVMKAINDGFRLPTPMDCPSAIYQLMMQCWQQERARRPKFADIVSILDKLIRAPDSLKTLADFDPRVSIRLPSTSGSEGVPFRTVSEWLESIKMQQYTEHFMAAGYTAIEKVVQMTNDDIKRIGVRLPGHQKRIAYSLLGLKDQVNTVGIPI

[7] = biological target: T4, CHK2 (Homo sapiens, UniProt O96017)
T4 construct: gene CHEK2
T4 sequence (O96017 whole entry): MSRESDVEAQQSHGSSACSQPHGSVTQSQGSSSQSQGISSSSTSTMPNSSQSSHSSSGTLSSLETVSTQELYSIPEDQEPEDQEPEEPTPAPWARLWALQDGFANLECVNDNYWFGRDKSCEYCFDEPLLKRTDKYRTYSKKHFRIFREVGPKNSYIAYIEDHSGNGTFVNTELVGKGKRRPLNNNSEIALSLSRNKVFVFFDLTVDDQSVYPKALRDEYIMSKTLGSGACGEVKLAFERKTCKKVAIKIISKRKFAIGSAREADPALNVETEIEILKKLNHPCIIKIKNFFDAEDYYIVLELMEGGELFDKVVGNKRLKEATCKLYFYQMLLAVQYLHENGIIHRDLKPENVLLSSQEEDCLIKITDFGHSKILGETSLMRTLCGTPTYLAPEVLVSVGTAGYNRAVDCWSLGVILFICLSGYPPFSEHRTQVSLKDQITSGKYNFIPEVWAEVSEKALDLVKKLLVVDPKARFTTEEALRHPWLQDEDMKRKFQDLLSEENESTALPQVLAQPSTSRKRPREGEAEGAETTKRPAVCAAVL

- ΔTm at 10 µM ([1]; read-out: 7c): 0 °C
- ΔTm at 10 µM ([2]; read-out: 7c): 0 °C
- ΔTm at 10 µM ([3]; read-out: 7c): 4 °C
- ΔTm at 10 µM ([4]; read-out: 7c): 7 °C
- ΔTm at 10 µM ([5]; read-out: 7c): 1 °C
- ΔTm at 10 µM ([6]; read-out: 7c): 1 °C
- ΔTm at 10 µM ([7]; read-out: 7c): 3 °C
SMILES: COc1ccc(OC(C)C)cc1Nc1cncc(-c2ccc(C(=O)O)cc2)n1 [7c]

- ΔTm at 10 µM ([1]; read-out: 6c): 1 °C
- ΔTm at 10 µM ([2]; read-out: 6c): 0 °C
- ΔTm at 10 µM ([3]; read-out: 6c): 4 °C
- ΔTm at 10 µM ([4]; read-out: 6c): 9 °C
- ΔTm at 10 µM ([5]; read-out: 6c): 3 °C
- ΔTm at 10 µM ([6]; read-out: 6c): 3 °C
- ΔTm at 10 µM ([7]; read-out: 6c): 4 °C
SMILES: CC(C)Oc1ccc2ccn(-c3cncc(-c4ccc(C(=O)O)cc4)n3)c2c1 [6c]

- ΔTm at 10 µM ([1]; read-out: 2): 0 °C
- ΔTm at 10 µM ([2]; read-out: 2): 2 °C
- ΔTm at 10 µM ([3]; read-out: 2): 6 °C
- ΔTm at 10 µM ([4]; read-out: 2): 11 °C
- ΔTm at 10 µM ([5]; read-out: 2): 6 °C
- ΔTm at 10 µM ([6]; read-out: 2): 1 °C
- ΔTm at 10 µM ([7]; read-out: 2): 6 °C
SMILES: CC(C)Nc1ccc2cnn(-c3cncc(-c4ccc(C(=O)O)cc4)n3)c2c1 [compound 2, 2]
